This is an account of results in US20220370416A1, “COMPOUNDS AND METHODS FOR TARGETED DEGRADATION OF KRAS” (Arvinas Operations, Inc., priority 2020, published 2022).

In assay [1] the target is T1, HiBit-KRAS^G12C (Homo sapiens, UniProt P01116, G12C). The assay can be described thus: HiBit degradation assay in MiaPaCa-2 HiBit-KRas^G12C cells. Format: cell-based. As to conditions: 24 hours, maximum degradation. The gist of the method:
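DC50 and Dmax come from 4-parameter fits of DMSO-normalized HiBit luminescence after 24 hours' exposure at 37° C to 10 μM–20 nM compound in 0.1% or 0.5% DMSO. Cells: MiaPaCa-2 carrying one endogenously HiBit-tagged KRAS^G12C allele; concentrations causing ≥50% […] viability loss (alamar blue) excluded.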

Assay [2] addresses T1, HiBit-KRAS^G12C. The assay is described as follows: HiBit degradation assay in SW1573 HiBit-KRas^G12C cells. Further details: expressed in transfected cells; host or cells: SW1573 (clone E6), modified pcDNA3.1 vector, TK promoter. As to conditions: 24 hours; for DC50: read-out: KRas^G12C-HIBit (SW1573; 0.1% DMSO) DC50*. Format: cell-based. A digest of the protocol:
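HiBit-KRAS G12C degradation was measured after a 24 h compound exposure (titrated 10 μM–20 nM) in engineered SW1573 cells. Lytic HiBit luminescence, expressed relative to DMSO controls, yielded DC50 and Dmax from 4-parameter fits. Concentrations causing ≥50% loss in alamar blue viability were omitted as cytotoxic.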
(In general: The HiBiT peptide binds its large partner to form an active luciferase.)

Where [3] appears, read: MIA PaCa-2, read-out: KRas^G12C-HiBiT (MiaPaCa; 0.1% DMSO) DMax, MiaPaCa-2 HiBit-KRas^G12C cells, 0.1% DMSO.
The mark [4] stands for this setting: MIA PaCa-2, read-out: KRas^G12C-HiBiT (MiaPaCa; 0.5% DMSO) DMax, MiaPaCa-2 HiBit-KRas^G12C cells, 0.5% DMSO.
[5] abbreviates: SW1573, read-out: KRas^G12C-HiBiT (SW1573; 0.5% DMSO) Dmax**, SW1573 HiBit-KRas^G12C, 0.5% DMSO.
The mark [6] stands for this setting: SW1573, read-out: KRas^G12C-HiBit (SW1573; 0.1% DMSO) Dmax**, SW1573 HiBit-KRas^G12C, 0.1% DMSO.
The mark [7] stands for this setting: SW1573 HiBit-KRas^G12C, 0.1% DMSO.
Setting [8] is: MIA PaCa-2, MiaPaCa-2 HiBit-KRas^G12C cells, 0.1% DMSO, read-out: KRas^G12C-HiBiT (MiaPaCa; 0.1% DMSO) DMax.
Where [9] appears, read: MIA PaCa-2, MiaPaCa-2 HiBit-KRas^G12C cells, 0.5% DMSO, read-out: KRas^G12C-HiBiT (MiaPaCa; 0.5% DMSO) DMax.
[10] abbreviates: SW1573, SW1573 HiBit-KRas^G12C, 0.1% DMSO, read-out: KRas^G12C-HiBit (SW1573; 0.1% DMSO) Dmax**.
Where [11] appears, read: SW1573, SW1573 HiBit-KRas^G12C, 0.5% DMSO, read-out: KRas^G12C-HiBiT (SW1573; 0.5% DMSO) Dmax**.

T1 sequence (P01116 1-186 isoform P01116-2 G12C limits assumed): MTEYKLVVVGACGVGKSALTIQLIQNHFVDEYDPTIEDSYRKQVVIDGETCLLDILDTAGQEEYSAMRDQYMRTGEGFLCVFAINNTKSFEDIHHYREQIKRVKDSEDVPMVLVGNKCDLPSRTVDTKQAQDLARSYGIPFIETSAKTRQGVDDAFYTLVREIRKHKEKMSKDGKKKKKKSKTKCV

Regarding `C=CC(=O)N1CCN(c2nc(O[C@H]3CCC[C@@H]3N3CCC(COCC(=O)N[C@H](C(=O)N4C[C@H](O)C[C@H]4C(=O)N[C@@H](C)c4ccc(-c5scnc5C)cc4)C(C)(C)C)CC3)nc3c(F)c(-c4cc(O)cc5ccccc45)c(Cl)cc23)CC1` [Compound 12, (2S,4R)-1-[(2S)-2-[2-({1-[(1S,2S)-2-{[6-chloro-8-fluoro-7-(3-hydroxynaphthalen-1-yl)-4-[4-(prop-2-enoyl)piperazin-1-yl]quinazolin-2-yl]oxy}cyclopentyl]piperidin-4-yl}methoxy)acetamido]-3,3-dimethylbutanoyl]-4-hydroxy-N-[(1S)-1-[4-(4-methyl-1,3-thiazol-5-yl)phenyl]ethyl]pyrrolidine-2-carboxamide], the Dmax at HiBit-KRAS^G12C [1] (setting [3]) was less than 35%; at HiBit-KRAS^G12C [1] (setting [4]), less than 35%; at HiBit-KRAS^G12C [2] (setting [5]) it was 35 to 70%; on HiBit-KRAS^G12C [2] (setting [6]) it was 35 to 70%. In addition, the DC50 on HiBit-KRAS^G12C [2] (setting [7]) fell in the range of 0.1 to 1 µM.

Regarding `C=CC(=O)N1CCN(c2nc(O[C@@H]3CCC[C@H]3N3CCC(COCC(=O)N[C@H](C(=O)N4C[C@H](O)C[C@H]4C(=O)N[C@@H](C)c4ccc(-c5scnc5C)cc4)C(C)(C)C)CC3)nc3c(F)c(-c4cc(O)cc5ccccc45)c(Cl)cc23)CC1` [Compound 13, (2S,4R)-1-[(2S)-2-[2-({1-[(1R,2R)-2-{[6-chloro-8-fluoro-7-(3-hydroxynaphthalen-1-yl)-4-[4-(prop-2-enoyl)piperazin-1-yl]quinazolin-2-yl]oxy}cyclopentyl]piperidin-4-yl}methoxy)acetamido]-3,3-dimethylbutanoyl]-4-hydroxy-N-[(1S)-1-[4-(4-methyl-1,3-thiazol-5-yl)phenyl]ethyl]pyrrolidine-2-carboxamide], the Dmax at HiBit-KRAS^G12C [1] (setting [3]), on HiBit-KRAS^G12C [1] (setting [4]), at HiBit-KRAS^G12C [2] (setting [5]) and on HiBit-KRAS^G12C [2] (setting [6]) was 35 to 70% in each case. Moreover, the DC50 at HiBit-KRAS^G12C [2] (setting [7]) was in the range of 0.1 to 1 µM.

For the molecule `C=C(F)C(=O)N1CCN(c2nc(OCCN3CCC(COCC(=O)N[C@H](C(=O)N4C[C@H](O)C[C@H]4C(=O)N[C@@H](C)c4ccc(-c5scnc5C)cc4)C(C)(C)C)CC3)nc3c(F)c(-c4cc(O)cc5ccccc45)c(Cl)cc23)C[C@@H]1CC#N` [Compound 15, (2S,4R)-1-[(2S)-2-[2-({1-[2-({6-chloro-4-[(3S)-3-(cyanomethyl)-4-(2-fluoroprop-2-enoyl)piperazin-1-yl]-8-fluoro-7-(3-hydroxynaphthalen-1-yl)quinazolin-2-yl}oxy)ethyl]piperidin-4-yl}methoxy)acetamido]-3,3-dimethylbutanoyl]-4-hydroxy-N-[(1S)-1-[4-(4-methyl-1,3-thiazol-5-yl)phenyl]ethyl]pyrrolidine-2-carboxamide], the Dmax at HiBit-KRAS^G12C [1] (setting [3]) is 35 to 70%; at HiBit-KRAS^G12C [2] (setting [6]), greater than 70%. For the same molecule, at HiBit-KRAS^G12C [2] (setting [7]), the DC50 fell in the range of 0.1 to 1 µM.

Consider `C=C(F)C(=O)N1CCN(c2nc(OCCN3CCC(OCCOc4cc([C@H](C(=O)N5C[C@H](O)C[C@H]5C(=O)N[C@@H](C)c5ccc(-c6scnc6C)cc5)C(C)C)on4)CC3)nc3c(F)c(-c4cc(O)cc5ccccc45)c(Cl)cc23)C[C@@H]1CC#N` [Compound 16, (2S,4R)-1-[(2R)-2-{3-[2-({1-[2-({6-chloro-4-[(3S)-3-(cyanomethyl)-4-(2-fluoroprop-2-enoyl)piperazin-1-yl]-8-fluoro-7-(3-hydroxynaphthalen-1-yl)quinazolin-2-yl}oxy)ethyl]piperidin-4-yl}oxy)ethoxy]-1,2-oxazol-5-yl}-3-methylbutanoyl]-4-hydroxy-N-[(1S)-1-[4-(4-methyl-1,3-thiazol-5-yl)phenyl]ethyl]pyrrolidine-2-carboxamide], for which the Dmax at HiBit-KRAS^G12C [1] (setting [8]) was 35 to 70%; on HiBit-KRAS^G12C [1] (setting [9]), greater than 70%; at HiBit-KRAS^G12C [2] (setting [10]), greater than 70%; on HiBit-KRAS^G12C [2] (setting [11]), greater than 70%. For the same molecule, the DC50 on HiBit-KRAS^G12C [2] (setting [7]) was in the range of 0.1 to 1 µM.

Turning to `C=CC(=O)N1CCN(c2nc(OCCN3CCC(COCC(=O)N[C@H](C(=O)N4C[C@H](O)C[C@H]4C(=O)N[C@@H](C)c4ccc(-c5scnc5C)cc4)C(C)(C)C)CC3)nc3c(F)c(-c4cc(O)cc5ccccc45)c(Cl)cc23)C[C@@H]1CC#N` [Compound 17, (2S,4R)-1-[(2S)-2-[2-({1-[2-({6-chloro-4-[(3S)-3-(cyanomethyl)-4-(prop-2-enoyl)piperazin-1-yl]-8-fluoro-7-(3-hydroxynaphthalen-1-yl)quinazolin-2-yl}oxy)ethyl]piperidin-4-yl}methoxy)acetamido]-3,3-dimethylbutanoyl]-4-hydroxy-N-[(1S)-1-[4-(4-methyl-1,3-thiazol-5-yl)phenyl]ethyl]pyrrolidine-2-carboxamide], the Dmax at HiBit-KRAS^G12C [1] (setting [8]) is greater than 70%; at HiBit-KRAS^G12C [2] (setting [10]) it was 35 to 70%. Besides, at HiBit-KRAS^G12C [1] (MiaPaCa-2 HiBit-KRas^G12C cells, 0.5% DMSO), the “KRas^G12C-HiBiT (MiaPaCa; 0.5% DMSO) DMax” value is on record as “A (A ≥ 70)”. Besides, at HiBit-KRAS^G12C [2] (setting [7]), the DC50 is 0.1 to 1 µM. Also, the “KRas^G12C-HiBiT (SW1573; 0.5% DMSO) Dmax**” value at HiBit-KRAS^G12C [2] (SW1573 HiBit-KRas^G12C, 0.5% DMSO) is recorded as “A (A ≥ 70)”.

As to `C=CC(=O)N1CCN(c2nc(O[C@H](C)CN3CCC(COc4cc([C@@H](C(=O)N5C[C@H](O)C[C@H]5C(=O)N[C@@H](C)c5ccc(-c6scnc6C)cc5)C(C)C)on4)CC3)nc3c(F)c(-c4cc(O)cc5ccccc45)c(Cl)cc23)CC1` [Compound 20, (2S,4R)-1-[(2S)-2-[3-({1-[(2R)-2-{[6-chloro-8-fluoro-7-(3-hydroxynaphthalen-1-yl)-4-[4-(prop-2-enoyl)piperazin-1-yl]quinazolin-2-yl]oxy}propyl]piperidin-4-yl}methoxy)-1,2-oxazol-5-yl]-3-methylbutanoyl]-4-hydroxy-N-[(1S)-1-[4-(4-methyl-1,3-thiazol-5-yl)phenyl]ethyl]pyrrolidine-2-carboxamide], the Dmax at HiBit-KRAS^G12C [1] (setting [8]), at HiBit-KRAS^G12C [1] (setting [9]), at HiBit-KRAS^G12C [2] (setting [10]) and on HiBit-KRAS^G12C [2] (setting [11]) was 35 to 70% in each case. Moreover, at HiBit-KRAS^G12C [2] (setting [7]), the DC50 is 0.1 to 1 µM.

Turning to `C=CC(=O)N1CCN(c2nc(OCCN3CCC(OCCOc4cc([C@@H](C(=O)N5C[C@H](O)C[C@H]5C(=O)N[C@@H](C)c5ccc(-c6scnc6C)cc5)C(C)C)on4)CC3)nc3c(F)c(-c4cc(O)cc5ccccc45)c(Cl)cc23)C[C@@H]1CC#N` [Compound 22, (2S,4R)-1-[(2S)-2-{3-[2-({1-[2-({6-chloro-4-[(3S)-3-(cyanomethyl)-4-(prop-2-enoyl)piperazin-1-yl]-8-fluoro-7-(3-hydroxynaphthalen-1-yl)quinazolin-2-yl}oxy)ethyl]piperidin-4-yl}oxy)ethoxy]-1,2-oxazol-5-yl}-3-methylbutanoyl]-4-hydroxy-N-[(1S)-1-[4-(4-methyl-1,3-thiazol-5-yl)phenyl]ethyl]pyrrolidine-2-carboxamide], the Dmax on HiBit-KRAS^G12C [1] (setting [8]) and on HiBit-KRAS^G12C [2] (setting [10]) was less than 35% in each case. For the same molecule, the DC50 on HiBit-KRAS^G12C [2] (setting [7]) lay in the range of 0.1 to 1 µM.

`C=C(F)C(=O)N1CCN(c2nc(O[C@H](C)CN3CCC(COCC(=O)N[C@H](C(=O)N4C[C@H](O)C[C@H]4C(=O)N[C@@H](C)c4ccc(-c5scnc5C)cc4)C(C)(C)C)CC3)nc3c2CCN(c2cc(O)cc4ccccc24)C3)C[C@@H]1CC#N` [Compound 24, (2S,4R)-1-[(2S)-2-[2-({1-[(2R)-2-({4-[(3S)-3-(cyanomethyl)-4-(2-fluoroprop-2-enoyl)piperazin-1-yl]-7-(3-hydroxynaphthalen-1-yl)-5H,6H,7H,8H-pyrido[3,4-d]pyrimidin-2-yl}oxy)propyl]piperidin-4-yl}methoxy)acetamido]-3,3-dimethylbutanoyl]-4-hydroxy-N-[(1S)-1-[4-(4-methyl-1,3-thiazol-5-yl)phenyl]ethyl]pyrrolidine-2-carboxamide]: the Dmax at HiBit-KRAS^G12C [1] (setting [8]) and on HiBit-KRAS^G12C [2] (setting [10]) was less than 35% in each case. Also, on HiBit-KRAS^G12C [2] (setting [7]), the DC50 is greater than 1 µM.
